Laboratory results: patent US8609616B2, “Strontium-containing compounds for use in the prevention or treatment of necrotic bone conditions” (Osteologix A/S, priority 2004, dated 2013)

System: animal model of osteonecrosis
Assay: Effect of strontium malonate in an animal model of osteonecrosis (necrotic bone graft in titanium chamber, histology)
Type: in vivo, rat
Conditions: male Sprague-Dawley rats, necrotic bone graft in tibia, 1.6 g/l in drinking water ad libitum (approx. 120 mg strontium malonate/day), 6 weeks; mean (±SD); p=0.038 vs calcium malonate control 2.24 (±1.00)
Source text: The rationale for the study was to assess the ability of strontium to act as a therapeutic and bone growth promoting (i.e. pro-anabolic) agent in an animal model of osteonecrosis. […] The necrotic graft was degraded, while ingrowth of new bone occurred. At termination of the experiment, the structural grafts was removed and analyzed by histology to quantify both the degradation of the necrotic graft as well as ingrowth of new bone. Concomitant treatment with anabolic and/or anti-resorptive agents may be given after the insertion of the necrotic graft, and the effect monitored after termination of the experiment. This rat model has previously been described (Astrand J, Aspenberg P. BMC Musculoskelet Disord. 2002; 3(1):19).
The salts were prepared in a solution of 1.6 g/l, which is close to saturation (22-25° C.). Thus extensive stirring was required to completely dissolve the substances. A new batch of drinking water was prepared fresh every week for the duration of the experiment. When not in use the solution was stored at room temperature in a closed container. […]
After careful removal from the titanium chamber, the grafts were decalcified in 10% formic acid, 2% formaldehyde for 14 days. […] Each section was subsequently stained with hematoxylin and eosin, and visually scored for appearance of degradation of the necrotic graft as well as ingrowth of new bone.

**Q.** Which “average ingrowth of new bone (ingrowth distance)” value does the source give for `O=C([O-])CC(=O)[O-].[Sr+2]` [strontium malonate] here?
**A.** The value was 3.43 (±1.35 (SD)) mm.
